Reference: PMC12116762, “Topobexin targets the Topoisomerase II ATPase domain for beta isoform-selective inhibition and anthracycline cardioprotection” (Nature Communications, 2025)
“And” between values parts separate entries of the source, which are not always exact repeats. Equal entries are not always repeated.

Experiments:
Format in all cases: biochemical
recombinant human TOP2B = target: T1, recombinant human TOP2B (Homo sapiens, UniProt Q02880); test: In vitro ATPase activity of TOP2B (coupled assay); details: for SRbeta (SRTOP2B), TOP2 ATPase activity: TOP2A IC50 divided by TOP2B IC50; for IC50: n=3
T1 construct: Using recombinant full-length human TOP2A and TOP2B enzymes; YFP (N, cleaved yes); made in house; host or cells: HEK293F
Protocol: (§1) Topoisomerase proteins were diluted to 500 nM in storage buffer containing 20 mM HEPES pH 7.5, 500 mM NaCl, 0.5 mM TCEP, 25% glycerol, and 0.2 mg/mL BSA prior to use. A coupled assay was used to measure TOP2-catalyzed ATP hydrolysis in vitro[37] in Costar 96-well plates (Corning Incorporated). […] Reaction plates were pre-warmed to 30 °C for 5 min and ATP was added last to initiate the reaction. The reaction plate was placed in a CLARIOstarPlus plate reader (BMG Labtech) to measure NADH fluorescence at 30 °C every 30 s over 120 cycles using a 340-60 excitation filter and a 480-100 emission filter. Background fluorescence signals calculated from wells containing no ATP were subtracted from each measurement. The slope of NADH fluorescence decay in each well was calculated using the MARS software (BMG Labtech) and reaction wells that lacked topoisomerase inhibitor to account for photobleaching of NADH fluorescence served as background subtraction. Each presented data point was obtained from distinct sample. Values were normalized to untreated controls and plotted as a function of inhibitor concentration to determine IC50 values using Prism 9 (GraphPad).

recombinant human TOP2A [1] = target: T2, recombinant human TOP2A (Homo sapiens, UniProt P11388); test: DNA decatenation assay, recombinant TOP2A; details: for IC50: enzyme expressed in HEK293F, n=3
T2 construct: Using recombinant full-length human TOP2A and TOP2B enzymes; YFP (N, cleaved yes); made in house; host or cells: HEK293F
Protocol: The human topoisomerase II decatenation assay was performed to determine the inhibitory effects of BNS-22 and new compounds as previously described with minor modifications[14],[36]. The assay was performed using recombinant human TOP2A or TOP2B generated using the HEK293F YFP-tag expression system as previously described[18],[19],[36]. Briefly, plasmids encoding YFP-TOP2A or YFP-TOP2B were transfected into HEK293F cells (Catalog number 11625019, Thermofisher Scientific), and TOP2 proteins were isolated from cell lysates by anti-YFP nanobody affinity chromatography. After elution by TEV protease cleavage, TOP2 proteins were FPLC purified by sequential cation exchange and size exclusion chromatography. Plasmid encoding TOP2B C88Y was generated by round-the-horn PCR mutagenesis and the sequence was verified by full-plasmid sequencing. Purified TOP2 proteins were stored in a storage buffer containing 20 mM HEPES pH 7.5, 500 mM NaCl, 0.5 mM TCEP, 25% (v/v) glycerol at -80 °C. For decatenation assays, purified TOP2 proteins were incubated with 200 ng kDNA (Topogen) in a reaction buffer containing 50 mM Tris−HCl (pH 8), 100 mM NaCl, 10 mM MgCl2, 0.5 mM DTT, 2 mM ATP, 0.1 mM tris(2-carboxyethyl)phosphine (TCEP), 5% (v/v) glycerol, 70 μg/mL bovine serum albumin, and 1/10 volume of each compound diluted in 10% DMSO (final DMSO concentration 1%) for 40 min at 37 °C. The reaction was then stopped by the addition of gel loading buffer (0.5 volumes of 60% (w/v) glycerol, 60 mM EDTA, 20 mM Tris−HCl (pH 7.5), 0.5 mg/mL bromophenol blue) and the samples were placed on ice. Reaction products were resolved by agarose gel electrophoresis in TBE buffer containing GelRed stain (Biotium). Gels were visualized using an iBright CL1000 (Thermofisher Scientific). Band intensities were quantified using FIJI, and the signal of the treated samples was normalized to the value of the control (untreated sample; 100%) present on the same gel. The normalized signal of three independent measurements was then expressed as mean ± SD. Each presented data point was obtained from distinct sample. Normalized values were plotted as a function of inhibitor concentration to determine IC50 values by nonlinear regression with variable slope using Prism 9 (GraphPad).

recombinant human TOP2A [2] = target: T2, recombinant human TOP2A; test: In vitro ATPase activity of TOP2A (coupled assay); details: for IC50: n=3
Protocol: as §1

[3] = 0.03125 μM, independent replicates
[4] = 0.0625 μM, independent replicates
[5] = 0.125 μM, independent replicates
[6] = 0.25 μM, independent replicates

T1 sequence (Q02880 1-1621 isoform Q02880-2): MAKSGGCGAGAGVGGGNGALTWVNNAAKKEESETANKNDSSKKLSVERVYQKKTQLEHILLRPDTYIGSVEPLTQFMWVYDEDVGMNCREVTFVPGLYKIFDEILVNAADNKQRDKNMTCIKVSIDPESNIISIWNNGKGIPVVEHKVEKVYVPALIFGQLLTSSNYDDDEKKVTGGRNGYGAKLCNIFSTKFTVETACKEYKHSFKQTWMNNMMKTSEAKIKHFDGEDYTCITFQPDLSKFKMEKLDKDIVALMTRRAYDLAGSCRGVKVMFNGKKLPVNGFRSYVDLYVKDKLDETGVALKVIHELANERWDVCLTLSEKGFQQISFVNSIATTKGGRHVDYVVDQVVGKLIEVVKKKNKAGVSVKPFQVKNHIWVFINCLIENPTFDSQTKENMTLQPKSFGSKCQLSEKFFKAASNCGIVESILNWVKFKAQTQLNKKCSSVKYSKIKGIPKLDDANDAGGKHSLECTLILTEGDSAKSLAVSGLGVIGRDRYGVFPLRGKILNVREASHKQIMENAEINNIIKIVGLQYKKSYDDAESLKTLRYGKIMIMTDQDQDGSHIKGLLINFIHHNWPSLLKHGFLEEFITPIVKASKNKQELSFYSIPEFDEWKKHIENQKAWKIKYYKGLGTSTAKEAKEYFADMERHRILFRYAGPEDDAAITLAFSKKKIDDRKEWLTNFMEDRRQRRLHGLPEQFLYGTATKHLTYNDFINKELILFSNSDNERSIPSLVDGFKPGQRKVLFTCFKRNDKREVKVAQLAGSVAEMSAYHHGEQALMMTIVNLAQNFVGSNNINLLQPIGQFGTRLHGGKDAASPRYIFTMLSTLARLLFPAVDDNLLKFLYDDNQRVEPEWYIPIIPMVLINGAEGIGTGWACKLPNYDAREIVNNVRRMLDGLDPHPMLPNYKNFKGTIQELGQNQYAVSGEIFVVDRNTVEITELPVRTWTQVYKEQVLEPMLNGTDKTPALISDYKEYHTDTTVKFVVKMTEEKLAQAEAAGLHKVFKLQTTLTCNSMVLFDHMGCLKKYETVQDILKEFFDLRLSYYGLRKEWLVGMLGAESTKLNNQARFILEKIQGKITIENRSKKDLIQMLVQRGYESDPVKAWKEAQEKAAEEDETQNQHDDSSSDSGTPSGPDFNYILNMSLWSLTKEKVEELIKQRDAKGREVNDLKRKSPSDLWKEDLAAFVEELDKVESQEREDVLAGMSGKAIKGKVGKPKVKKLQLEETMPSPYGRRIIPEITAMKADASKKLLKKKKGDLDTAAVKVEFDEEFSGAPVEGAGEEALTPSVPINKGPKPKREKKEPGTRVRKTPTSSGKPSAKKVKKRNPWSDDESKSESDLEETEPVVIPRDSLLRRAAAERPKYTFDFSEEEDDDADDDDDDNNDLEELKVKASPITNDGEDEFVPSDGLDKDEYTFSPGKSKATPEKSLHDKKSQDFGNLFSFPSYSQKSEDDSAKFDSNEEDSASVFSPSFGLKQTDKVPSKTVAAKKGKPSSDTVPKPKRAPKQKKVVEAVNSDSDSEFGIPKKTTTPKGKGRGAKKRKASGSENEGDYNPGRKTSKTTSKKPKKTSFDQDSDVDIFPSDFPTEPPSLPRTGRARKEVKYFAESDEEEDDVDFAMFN
T2 sequence (P11388 whole entry): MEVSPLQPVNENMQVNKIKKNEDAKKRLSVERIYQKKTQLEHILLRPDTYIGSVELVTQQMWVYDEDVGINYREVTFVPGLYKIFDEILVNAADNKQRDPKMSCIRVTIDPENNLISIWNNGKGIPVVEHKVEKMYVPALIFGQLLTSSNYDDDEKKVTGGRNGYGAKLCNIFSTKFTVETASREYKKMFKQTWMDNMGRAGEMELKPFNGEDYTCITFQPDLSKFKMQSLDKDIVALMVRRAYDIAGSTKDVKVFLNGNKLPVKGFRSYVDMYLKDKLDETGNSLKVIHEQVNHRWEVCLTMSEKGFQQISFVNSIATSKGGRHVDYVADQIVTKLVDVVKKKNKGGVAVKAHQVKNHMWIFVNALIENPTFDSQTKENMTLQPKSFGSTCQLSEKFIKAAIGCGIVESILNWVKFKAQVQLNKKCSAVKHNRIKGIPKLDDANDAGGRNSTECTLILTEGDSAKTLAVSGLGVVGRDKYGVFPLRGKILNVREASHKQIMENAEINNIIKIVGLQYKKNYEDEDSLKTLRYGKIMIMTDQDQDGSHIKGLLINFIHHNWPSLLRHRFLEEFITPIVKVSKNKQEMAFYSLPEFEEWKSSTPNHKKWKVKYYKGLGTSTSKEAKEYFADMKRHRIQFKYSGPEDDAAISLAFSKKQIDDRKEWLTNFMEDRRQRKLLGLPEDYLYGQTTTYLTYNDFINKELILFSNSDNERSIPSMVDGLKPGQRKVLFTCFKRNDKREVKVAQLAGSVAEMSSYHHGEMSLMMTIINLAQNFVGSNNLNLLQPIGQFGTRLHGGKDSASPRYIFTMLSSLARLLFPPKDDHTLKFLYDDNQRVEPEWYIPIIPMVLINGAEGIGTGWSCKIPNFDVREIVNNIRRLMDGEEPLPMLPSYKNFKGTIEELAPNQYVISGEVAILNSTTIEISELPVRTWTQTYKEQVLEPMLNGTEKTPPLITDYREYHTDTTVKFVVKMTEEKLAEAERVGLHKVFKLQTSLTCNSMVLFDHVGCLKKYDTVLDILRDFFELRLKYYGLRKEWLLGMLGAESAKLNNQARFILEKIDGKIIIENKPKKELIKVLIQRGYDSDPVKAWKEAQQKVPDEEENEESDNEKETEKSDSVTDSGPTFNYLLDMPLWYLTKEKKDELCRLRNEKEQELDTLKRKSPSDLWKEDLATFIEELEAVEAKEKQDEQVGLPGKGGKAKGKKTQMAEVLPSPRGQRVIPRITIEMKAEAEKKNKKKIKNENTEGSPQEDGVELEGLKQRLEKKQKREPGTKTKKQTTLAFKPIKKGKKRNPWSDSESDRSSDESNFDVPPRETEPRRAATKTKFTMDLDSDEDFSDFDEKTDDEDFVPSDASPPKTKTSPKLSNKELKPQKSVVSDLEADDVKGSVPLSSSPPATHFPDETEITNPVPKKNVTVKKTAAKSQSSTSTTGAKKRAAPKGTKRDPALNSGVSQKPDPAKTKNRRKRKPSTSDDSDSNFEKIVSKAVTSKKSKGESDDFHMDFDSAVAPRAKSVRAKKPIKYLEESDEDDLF

CCCc1cc(=O)oc2c(C(=O)N3CCCc4ccccc43)c(OC)cc(OC)c12 [BNS-22]
Normalized % TOP2B activity, ATPase (recombinant human TOP2B; [3]): 92.74% and 92.18% and 98.3% | Normalized % TOP2B activity, ATPase (recombinant human TOP2B; [4]): 92.24% and 94.66% and 102.1588% | Normalized % TOP2B activity, ATPase (recombinant human TOP2B; [5]): 100.3668% and 84.21% and 108.4459% | Normalized % TOP2B activity, ATPase (recombinant human TOP2B; [6]): 91.2179% and 87.24% and 97.62% | Normalized % TOP2B activity, ATPase (recombinant human TOP2B; 0.5 μM, independent replicates): 80.5% and 76.19% and 88.45% | Normalized % TOP2B activity, ATPase (recombinant human TOP2B; 1 μM, independent replicates): 58.26% and 48.84% and 67.64% | Normalized % TOP2B activity, ATPase (recombinant human TOP2B; 2 μM, independent replicates): 31.308% and 30.02% and 38.85% | Normalized % TOP2B activity, ATPase (recombinant human TOP2B; 4 μM, independent replicates): 10.88% and 8.636% and 13.51% | Normalized % TOP2B activity, ATPase (recombinant human TOP2B; 8 μM, independent replicates): 2.82% and 1.793% and 10.43% | Normalized % TOP2B activity, ATPase (recombinant human TOP2B; 16 μM, independent replicates): 1.695% and 1.187% and 0.8652% | Normalized % TOP2B activity, ATPase (recombinant human TOP2B; 32 μM, independent replicates): 0.8806% and 0.9028% and 0.7954% | selectivity ratio in favour of TOP2B (SRTOP2B) (recombinant human TOP2B; ATP hydrolysis and DNA decatenation): 1.5–1.6 | SRbeta (SRTOP2B), TOP2 ATPase activity (recombinant human TOP2B): 1.5 | IC50 (recombinant human TOP2B): 870 nM | Normalized % TOP2A activity, decatenation (recombinant human TOP2A [1]; 0.029 μM, independent replicates): 129.2% and 104.9% and 108.1% | Normalized % TOP2A activity, decatenation (recombinant human TOP2A [1]; 0.059 μM, independent replicates): 115.3% and 107.3% and 87.18% | Normalized % TOP2A activity, decatenation (recombinant human TOP2A [1]; 0.117 μM, independent replicates): 112.3% and 85.14% and 77.75% | Normalized % TOP2A activity, decatenation (recombinant human TOP2A [1]; 0.234 μM, independent replicates): 113.6% and 104.1% and 111.1% | Normalized % TOP2A activity, decatenation (recombinant human TOP2A [1]; 0.469 μM, independent replicates): 107.6% and 108.2% and 94.85% | Normalized % TOP2A activity, decatenation (recombinant human TOP2A [1]; 0.938 μM, independent replicates): 110.1% and 99.05% and 142.1% | Normalized % TOP2A activity, decatenation (recombinant human TOP2A [1]; 1.875 μM, independent replicates): 103.6% and 97.25% and 87.84% | Normalized % TOP2A activity, decatenation (recombinant human TOP2A [1]; 3.750 μM, independent replicates): 92.41% and 84.64% and 69.95% | Normalized % TOP2A activity, decatenation (recombinant human TOP2A [1]; 7.500 μM, independent replicates): 58.26% and 36.7% and 30.82% | Normalized % TOP2A activity, decatenation (recombinant human TOP2A [1]; 15.000 μM, independent replicates): 19.52% and 10.3% and 12.12% | Normalized % TOP2A activity, decatenation (recombinant human TOP2A [1]; 30.000 μM, independent replicates): 7.598% and 6.508% and 9.979% | IC50 (recombinant human TOP2A [1]): 6510 nM | Normalized % TOP2A activity, ATPase (recombinant human TOP2A [2]; [3]): 106.5339% and 96.82% and 104.97% | Normalized % TOP2A activity, ATPase (recombinant human TOP2A [2]; [4]): 99.93% and 96.81% and 104.654% | Normalized % TOP2A activity, ATPase (recombinant human TOP2A [2]; [5]): 97.92% and 87.09% and 103.8686% | Normalized % TOP2A activity, ATPase (recombinant human TOP2A [2]; [6]): 84.39% and 86.41% and 95.01% | Normalized % TOP2A activity, ATPase (recombinant human TOP2A [2]; 0.5 μM, independent replicates): 68.7163% and 74.39% and 48.12% | Normalized % TOP2A activity, ATPase (recombinant human TOP2A [2]; 1 μM, independent replicates): 44.71% and 47.48% and 56.42% | Normalized % TOP2A activity, ATPase (recombinant human TOP2A [2]; 2 μM, independent replicates): 21.32% and 23.49% and 28.53% | Normalized % TOP2A activity, ATPase (recombinant human TOP2A [2]; 4 μM, independent replicates): 7.817% and 9.176% and 12.94% | Normalized % TOP2A activity, ATPase (recombinant human TOP2A [2]; 8 μM, independent replicates): 4.538% and 5.681% and 5.457% | Normalized % TOP2A activity, ATPase (recombinant human TOP2A [2]; 16 μM, independent replicates): 3.325% and 1.312% and 2.254% | Normalized % TOP2A activity, ATPase (recombinant human TOP2A [2]; 32 μM, independent replicates): 1.897% and 0.9839% and 2.191% | IC50 (recombinant human TOP2A [2]): 1270 nM

C[C@@H](CN1CC(=O)NC(=O)C1)N1CC(=O)NC(=O)C1 [dexrazoxane]
remaining activity at 0.03125 µM (recombinant human TOP2B; 0.03125 μM, independent replicates, read-out: Normalized % TOP2B activity, ATPase): 97.9% | remaining activity at 0.0625 µM (recombinant human TOP2B; 0.0625 μM, independent replicates, read-out: Normalized % TOP2B activity, ATPase): 99.9% | remaining activity at 0.125 µM (recombinant human TOP2B; 0.125 μM, independent replicates, read-out: Normalized % TOP2B activity, ATPase): 96.3% | remaining activity at 0.25 µM (recombinant human TOP2B; 0.25 μM, independent replicates, read-out: Normalized % TOP2B activity, ATPase): 88.7% | remaining activity at 0.5 µM (recombinant human TOP2B; 0.5 μM, independent replicates, read-out: Normalized % TOP2B activity, ATPase): 80.9% | remaining activity at 1 µM (recombinant human TOP2B; 1 μM, independent replicates, read-out: Normalized % TOP2B activity, ATPase): 74.8% | remaining activity at 2 µM (recombinant human TOP2B; 2 μM, independent replicates, read-out: Normalized % TOP2B activity, ATPase): 68.4% | remaining activity at 4 µM (recombinant human TOP2B; 4 μM, independent replicates, read-out: Normalized % TOP2B activity, ATPase): 45% | remaining activity at 8 µM (recombinant human TOP2B; 8 μM, independent replicates, read-out: Normalized % TOP2B activity, ATPase): 24.3% | remaining activity at 16 µM (recombinant human TOP2B; 16 μM, independent replicates, read-out: Normalized % TOP2B activity, ATPase): 14.6% | remaining activity at 32 µM (recombinant human TOP2B; 32 μM, independent replicates, read-out: Normalized % TOP2B activity, ATPase): 13.2% | relative inhibition of TOP2A vs TOP2B (recombinant human TOP2B; ATPase): inhibits ATP hydrolysis for both isoforms with equal potency | SRbeta (SRTOP2B), TOP2 ATPase activity (recombinant human TOP2B): 0.89 | IC50 (recombinant human TOP2B): 2550 nM | remaining activity at 0.059 µM (recombinant human TOP2A [1]; 0.059 μM, independent replicates, read-out: Normalized % TOP2A activity, decatenation): 112% | remaining activity at 0.469 µM (recombinant human TOP2A [1]; 0.469 μM, independent replicates, read-out: Normalized % TOP2A activity, decatenation): 114% | remaining activity at 0.938 µM (recombinant human TOP2A [1]; 0.938 μM, independent replicates, read-out: Normalized % TOP2A activity, decatenation): 94.4% | remaining activity at 1.875 µM (recombinant human TOP2A [1]; 1.875 μM, independent replicates, read-out: Normalized % TOP2A activity, decatenation): 68.7% | remaining activity at 7.5 µM (recombinant human TOP2A [1]; 7.500 μM, independent replicates, read-out: Normalized % TOP2A activity, decatenation): 33.6% | IC50 (recombinant human TOP2A [1]): 3350 nM | remaining activity at 0.125 µM (recombinant human TOP2A [2]; 0.125 μM, independent replicates, read-out: Normalized % TOP2A activity, ATPase): 90.6% | remaining activity at 0.25 µM (recombinant human TOP2A [2]; 0.25 μM, independent replicates, read-out: Normalized % TOP2A activity, ATPase): 86.6% | remaining activity at 1 µM (recombinant human TOP2A [2]; 1 μM, independent replicates, read-out: Normalized % TOP2A activity, ATPase): 62.9% | remaining activity at 4 µM (recombinant human TOP2A [2]; 4 μM, independent replicates, read-out: Normalized % TOP2A activity, ATPase): 29.5% | remaining activity at 8 µM (recombinant human TOP2A [2]; 8 μM, independent replicates, read-out: Normalized % TOP2A activity, ATPase): 19% | remaining activity at 16 µM (recombinant human TOP2A [2]; 16 μM, independent replicates, read-out: Normalized % TOP2A activity, ATPase): 14.4% | IC50 (recombinant human TOP2A [2]): 2270 nM
